Reference: publication PMC8303886, “Polyphenylglyoxamide-Based Amphiphilic Small Molecular Peptidomimetics as Antibacterial Agents with Anti-Biofilm Activity” (International Journal of Molecular Sciences, 2021)
Values joined by “and” are separate entries in the source; they are usually repeats but may differ in a detail not shown here. Equal values may be shown once. Read-outs that look alike come from different tables or passages of the source. Blank lines part the entries; values can stand above or below the compound they belong to.

Columns and labels:
[1] = test system: S. aureus (SA38); details: previously reported, cited from earlier work
[2] = test system: S. aureus (SA38); test: Minimum inhibitory concentration (MIC) assay against S. aureus; assay type: cell-based, Staphylococcus aureus; details: S. aureus SA38, read-out: MIC S. aureus
[3] = test system: MRC-5 normal human lung fibroblasts; test: MTT cytotoxicity assay; assay type: cell-based; details: 72 h drug incubation; for IC50: read-out: IC50 against MRC-5 normal human lung fibroblasts
Procedure: The IC50 values of the tested peptidomimetics were determined from a dose-response curve. […] The therapeutic indices for each tested peptidomimetic against Gram-positive S. aureus and Gram-negative E. coli were calculated by dividing the IC50 value against human cells by the corresponding MIC value (Table 2).
The toxicity of the peptidomimetics against normal human lung fibroblasts MRC-5 cells was measured, using an MTT (3-(4,5-dimethylthiazol-2-yl)-2,5-diphenyltetrazolium bromide) (Sigma Aldrich, St. Louis, MO, USA) colorimetric assay. The cells were cultured in minimal essential medium (MEM, Invitrogen) containing 10% foetal bovine serum (FBS). The cells were maintained at 37 °C in 5% CO2 as an adherent monolayer and was passaged upon reaching confluence by standard cell culture techniques. MRC-5 cells were seeded at 5000 cells/well in 96-well plates to ensure full confluence (quiescence) and left overnight to adhere to the plate wells. The adherent cells were treated with 1–500 μM of compounds by dissolving in DMSO and serially diluting with media. TY-01 was used as the positive control. The final concentration of DMSO was 0.5% (v/v). After the 72 h drug incubation, […] stock MTT solution (5 mg/mL) was added, and the cells were incubated for another 3.5–4 h. The MTT solution containing media was carefully aspirated without displacing the purple crystals from the bottom, and […] acid-isopropanol was added to all wells and mixed slowly by shaking with an orbital shaker to dissolve the dark blue crystals. […] The determination of IC50 values was performed using GraphPad Prism 7 (GraphPad, San Diego, CA, USA). Each experiment was performed in triplicate and was repeated in three independent experiments.

[4] = test system: E. coli (K12); design: method as in PMID 32947921; details: previously reported, cited from earlier work
[5] = test system: P. aeruginosa (PAO1); design: method as in PMID 32947921; details: previously reported, cited from earlier work
[6] = test system: E. coli (K12); test: Minimum inhibitory concentration (MIC) assay against E. coli; assay type: cell-based; details: Escherichia coli
[7] = test system: P. aeruginosa (PAO1); test: Minimum inhibitory concentration (MIC) assay against P. aeruginosa; assay type: cell-based; details: Pseudomonas aeruginosa
[8] = test system: pre-established S. aureus biofilms; test: Disruption of pre-established S. aureus biofilms (crystal violet assay); assay type: cell-based, Staphylococcus aureus
Procedure: As bacterial biofilms are one of the major challenges in treating bacterial infection, the ability of the synthesised peptidomimetics to disrupt pre-established biofilms was investigated.
(§1) Bacterial cultures (S. aureus and E. coli) were cultured in MHB at 37 °C with shaking at 120 rpm for 24 h. The resulting bacterial culture was washed twice with MHB with centrifugation after each wash. The bacterial solution was then diluted with fresh MHB to a turbidity of OD660 = 0.1 in MHB (equivalent to 10^8 colony forming unit (CFU)/mL of bacteria), followed by diluting to 10^6 CFU/mL in MHB. A total of 200 µL of the bacterial solution was dispensed to wells in a flat-bottom 96-well plate (Costar). The biofilm was then grown in the plate at 37 °C for 24 h. After incubation, loosely bound cells were washed away with 1× phosphate-buffered saline (PBS, pH 7.4). The biofilms were then supplemented with different concentrations of peptidomimetics dissolved in DMSO and incubated at 37 °C with shaking at 120 rpm for a further 24 h. Biofilms adhered on the plate substratum were quantified, using crystal violet staining as described previously. The experiment was performed in triplicate.

[9] = test system: pre-established E. coli biofilms; test: Disruption of pre-established E. coli biofilms (crystal violet assay); assay type: cell-based, Escherichia coli; details: 2× MIC, 24 h treatment (64 μM for 17c)
Procedure: as §1

[10] = highest concentration tested 250 μM
[11] = 4× MIC, 24 h treatment (32 μM for 17c)

SMILES: CCCCCCCCS(=O)(=O)Nc1ccccc1C(=O)C(=O)NCCCN(C)C [Compound 10a]
MIC S. aureus [1]: 250 μM and 106 μg/mL

SMILES: CCCCCCCCS(=O)(=O)Nc1ccc(Br)cc1C(=O)C(=O)NCCCN(C)C [Compound 10b]
MIC S. aureus [1]: 94 μM and 47 μg/mL

SMILES: CCCCCCCCS(=O)(=O)Nc1ccc(-c2ccccc2)cc1C(=O)C(=O)NCCCN(C)C [Compound 10c]
MIC S. aureus [1]: 24 μM and 12 μg/mL

SMILES: CCCCCCCCS(=O)(=O)Nc1ccc(-c2ccc(-c3ccccc3)cc2)cc1C(=O)C(=O)NCCCN(C)C [Compound 10d, N-(3-(Dimethylamino)propyl)-2-(4-(octylsulfonamido)-[1,1′:4′,1″-terphenyl]-3-yl)-2-oxoacetamide]
MIC [2]: 8 µM | MIC ([2]; Staphylococcus aureus): 4.6 µg/mL | IC50 [3]: 3.48 µM | IC50 ([3]; Homo sapiens, MRC5, 72 h): 2.01 µg/mL

SMILES: CCCCCCCCCCCCCCCCS(=O)(=O)Nc1ccc(-c2ccccc2)cc1C(=O)C(=O)NCCCN(C)C [Compound 12c, N-(3-(Dimethylamino)propyl)-2-(4-(hexadecylsulfonamido)-[1,1′-biphenyl]-3-yl)-2-oxoacetamide]
MIC ([2]; Staphylococcus aureus): > 250 µM and > 153 µg/mL | melting point: 76.7 to 79.4 °C

SMILES: CCCCCCCCS(=O)(=O)Nc1ccccc1C(=O)C(=O)NCCCN(C)C [Compound 13a]
MIC S. aureus [1]: > 250 μM and > 116 μg/mL

SMILES: CCCCCCCCS(=O)(=O)Nc1ccc(Br)cc1C(=O)C(=O)NCCCN(C)C [Compound 13b]
MIC S. aureus [1]: 63 μM and 34 μg/mL

SMILES: CCCCCCCCS(=O)(=O)Nc1ccc(-c2ccccc2)cc1C(=O)C(=O)NCCCN(C)C [Compound 13c]
MIC S. aureus [1]: 16 μM and 8.6 μg/mL

SMILES: CCCCCCCCS(=O)(=O)Nc1ccc(-c2ccc(-c3ccccc3)cc2)cc1C(=O)C(=O)NCCCN(C)C.Cl [Compound 13d, N,N-Dimethyl-3-(2-(4-(octylsulfonamido)-[1,1′:4′,1″-terphenyl]-3-yl)-2-oxoacetamido)propan-1-aminium chloride]
MIC ([2]; Staphylococcus aureus): 16 µM and 9.8 µg/mL | IC50 against MRC-5 normal human lung fibroblasts [3]: 2.31 µg/mL | IC50 [3]: 3.76 µM | IC50 ([3]; Homo sapiens, MRC5, 72 h): ~4 µM and ~2 µg/mL

SMILES: CCCCCCCCS(=O)(=O)Nc1ccc(-c2ccccc2)cc1C(=O)C(=O)NCCC[N+](C)(C)C [Compound 16c]
MIC S. aureus ([1]; listed as 2, 16c): 16 μM and 10 μg/mL | MIC S. aureus ([1]; listed as 2): 16 µM | MIC S. aureus [1]: 10 µg/mL | MIC E. coli ([4]; listed as 2, 16c): 32 μM and 21 μg/mL | MIC E. coli ([4]; listed as 2): 32 µM | MIC P. aeruginosa ([5]; listed as 2, 16c): 125 μM and 80 μg/mL | MIC P. aeruginosa [5]: 125 μM and 80 μg/mL

SMILES: CCCCCCCCS(=O)(=O)Nc1ccc(-c2cccc(-c3ccccc3)c2)cc1C(=O)C(=O)NCCCN(C)C.Cl [Compound 22, N,N-Dimethyl-3-(2-(4-(octylsulfonamido)-[1,1′:3′,1″-terphenyl]-3-yl)-2-oxoacetamido)propan-1-aminium chloride]
MIC [2]: 16 µM | MIC ([2]; Staphylococcus aureus): 9.8 µg/mL | IC50 ([3]; Homo sapiens, MRC5, 72 h): 3.46 µM and 2.13 µg/mL

SMILES: CCCCCCCCS(=O)(=O)Nc1ccc(-c2cccc(-c3ccccc3)c2)cc1C(=O)C(=O)NCCC[N+](C)(C)C.[I-] [Compound 23, N,N,N-Trimethyl-3-(2-(4-(octylsulfonamido)-[1,1′:3′,1″-terphenyl]-3-yl)-2-oxoacetamido)propan-1-aminium iodide]
MIC ([2]; Staphylococcus aureus): 8 µM and 5.8 µg/mL | IC50 ([3]; Homo sapiens, MRC5, 72 h): 15.4 µM and 11.1 µg/mL

SMILES: CCCCCCCCS(=O)(=O)Nc1ccccc1C(=O)C(=O)NCCCNC(=N)N [Compound 33a]
MIC S. aureus [1]: 47 μM and 22 μg/mL

SMILES: CCCCCCCCS(=O)(=O)Nc1ccc(Br)cc1C(=O)C(=O)NCCCNC(=N)N [Compound 33b]
MIC S. aureus ([1]; listed as 1, 33b): 12 μM and 6.7 μg/mL | MIC S. aureus ([1]; listed as 1): 12 µM

SMILES: CCCCCCCCS(=O)(=O)Nc1ccc(-c2ccccc2)cc1C(=O)C(=O)NCCCNC(=N)N [Compound 33c]
MIC S. aureus [1]: 8 μM and 4.4 μg/mL | MIC E. coli [4]: 63 μM and 35 μg/mL | MIC P. aeruginosa [5]: 63 μM and 35 μg/mL

More lines, main results first:

MIC ([2]; Staphylococcus aureus): 8 µM and 5.6 µg/mL | MIC [6]: 32 µM and 22 µg/mL | MIC [7]: > 176 µg/mL | MIC [7, 10]: > 250 µM
SMILES: CCCCCCCCCCCCS(=O)(=O)Nc1ccc(Br)cc1C(=O)C(=O)NCCC[N+](C)(C)C.[I-] [Compound 17b, 3-(2-(5-Bromo-2-(dodecylsulfonamido)phenyl)-2-oxoacetamido)-N,N,N-trimethylpropan-1-aminium iodide]
disruption of pre-established S. aureus biofilms ([8]; 1× MIC, 24 h treatment): 20–36% | disruption of pre-established S. aureus biofilms [8, 11]: 38% | disruption of pre-established E. coli biofilms [9]: 31% | IC50 ([3]; Homo sapiens, MRC5, 72 h): 18.3 µM and 12.9 µg/mL

MIC ([2]; Staphylococcus aureus): 8 µM and 5.4 µg/mL | MIC [6]: > 250 µM | MIC [7, 10]: > 250 µM
SMILES: CCCCCCCCCCCCCCCCS(=O)(=O)Nc1ccccc1C(=O)C(=O)NCCC[N+](C)(C)C.[I-] [Compound 18a, 3-(2-(2-(Hexadecylsulfonamido)phenyl)-2-oxoacetamido)-N,N,N-trimethylpropan-1-aminium iodide]
disruption of pre-established S. aureus biofilms ([8]; 1× MIC, 24 h treatment): 20–36% | IC50 ([3]; Homo sapiens, MRC5, 72 h): 52.4 µM and 35.6 µg/mL

MIC ([2]; Staphylococcus aureus): 16 µM and 10 µg/mL | melting point: 49.6 to 50.1 °C
SMILES: CCCCCCCCS(=O)(=O)Nc1ccc(-c2ccc(-c3ccccc3)cc2)cc1C(=O)C(=O)NCCCNC(=N)N.Cl [Compound 33d, N-(3-Guanidinopropyl)-2-(4-(octylsulfonamido)-[1,1′:4′,1″-terphenyl]-3-yl)-2-oxoacetamide hydrochloride]
IC50 ([3]; Homo sapiens, MRC5, 72 h): 16.9 µM and 10.6 µg/mL

MIC ([2]; Staphylococcus aureus): 16 µM and 9.8 µg/mL | MIC [6]: > 250 µM and > 153 µg/mL | MIC [7]: > 153 µg/mL | MIC [7, 10]: > 250 µM | melting point: 50 to 50.1 °C
SMILES: CCCCCCCCCCCCS(=O)(=O)Nc1ccc(Br)cc1C(=O)C(=O)NCCCNC(=N)N.Cl [Compound 34b, 2-(5-Bromo-2-(dodecylsulfonamido)phenyl)-N-(3-guanidinopropyl)-2-oxoacetamide hydrochloride]
disruption of pre-established S. aureus biofilms ([8]; 1× MIC, 24 h treatment): 20–36% and 36% | disruption of pre-established S. aureus biofilms [8, 11]: 42% | IC50 ([3]; Homo sapiens, MRC5, 72 h): 21.1 µM and 14.8 µg/mL

MIC ([2]; Staphylococcus aureus): 32 µM and 19 µg/mL | melting point: 73.2 to 73.5 °C
SMILES: CCCCCCCCCCCCS(=O)(=O)Nc1ccc(-c2ccccc2)cc1C(=O)C(=O)NCCCNC(=N)N.Cl [Compound 34c, 2-(4-(Dodecylsulfonamido)-[1,1′-biphenyl]-3-yl)-N-(3-guanidinopropyl)-2-oxoacetamide hydrochloride]

MIC ([2]; Staphylococcus aureus): > 250 µM and > 167 µg/mL | melting point: 64.3 to 66.6 °C
SMILES: CCCCCCCCCCCCCCCCS(=O)(=O)Nc1ccc(Br)cc1C(=O)C(=O)NCCCNC(=N)N.Cl [Compound 35b, 2-(5-Bromo-2-(hexadecylsulfonamido)phenyl)-N-(3-guanidinopropyl)-2-oxoacetamide hydrochloride]

MIC ([2]; Staphylococcus aureus): > 250 µM and > 166 µg/mL | melting point: 74.5 to 77.1 °C
SMILES: CCCCCCCCCCCCCCCCS(=O)(=O)Nc1ccc(-c2ccccc2)cc1C(=O)C(=O)NCCCNC(=N)N.Cl [Compound 35c, N-(3-Guanidinopropyl)-2-(4-(hexadecylsulfonamido)-[1,1′-biphenyl]-3-yl)-2-oxoacetamide hydrochloride]
